Data set [1] relates to HeLa S3 cells. Description: Cell cycle analysis and count of mitotic cells after peptide treatment, HeLa S3. The format is cell-based, human. As for the experimental part:
Cell cycle analysis was performed using a Cycle TEST™ PLUS DNA reagent kit (Becton Dickinson) according to the manufacturer's instructions. Briefly, cells were washed with PBS, treated with RNase A and stained with propidium iodide (PI). The analysis was performed using a Becton Dickinson FACScan flow cytometer. Using the MODFIT LT 2.0 software (Verity Software House, Topsham, Me.) for each individual sample 30,000 cells were analyzed.
(§1) For staining cells were grown in slide flasks and treated with peptides for 24 h. Then, cells were fixed in 4% paraformaldehyde for 30 min, permeabilized in 0.2% Triton X-100 for 20 min and stained with α-tubulin (Serotec/Biozol, Eching) 1:100, polyclonal rabbit PLK1 1:100, or monoclonal α-tubulin (Sigma) 1:100. Stained cells were analyzed with a confocal laser scan microscope (CLSM) or a fluorescence microscope.

For data set [2], the system named is Saos-2 cells. In words: Growth inhibition assay with peptides, Saos-2. Conditions: Saos-2, 5 μM. It counts as cell-based, human. As for the experimental part:
(§2) Cancer cell lines HeLa S3 (cervix), MCF-7 (breast) and Saos-2 (osteosarcoma) were grown at 37° C. in 5% CO2 in Ham's F 12, RPMI 1640 and McCoy's 5a medium, respectively containing 10% FBS, 2 mM L-glutamine. To assay for growth inhibition, exponentially growing cells (0.3-2.5×10^4) were seeded into 24-well plates. On the following day cells were incubated with peptides at varying concentrations without serum for 3 h followed by addition of complete medium. On day 3, 6 and 8 cells were treated again and harvested on day 3, 6, 8 and 10 to determine cell numbers using a Hemacytometer. Cell viability was assessed by trypan blue staining. Each experiment was repeated at least three times.

For data set [3], the system named is MCF-7 and HeLa S3 cells. In words: Annexin V apoptosis assay and DNA staining after peptide treatment. It counts as cell-based, human. The procedure:
Cells were seeded into 6-well plates, allowed to attach overnight, and then treated with different peptides at a concentration of 10 μM. Cells were trypsinized after 16 h and incubated with Annexin V according to the manufacturer's recommendations (Mo Bi Tech).

For data set [4], the system named is PLK1. Description: In vitro kinase assay with PLK1 purified from Sf 9 cells. The format is biochemical, human. The procedure:
PLK1 purified from Sf 9 cells was incubated with 0.5-1 μg of PLK1-specific substrates and 2 μCi of […] for 20 min at 37° C. in kinase buffer (20 mM HEPES pH 7.4, 150 mM KCl, 10 mM MgCl2, 1 mM EGTA, 0.5 mM DTT, 5 mM NaF, 0.1 mM Na3VO4 and 100 μM ATP).

Data set [5] relates to primary epithelial cells (HMEC). Description: Growth inhibition with peptides, primary epithelial cells. It counts as cell-based, human.
Data set [6] relates to HeLa S3 cells. Description: Growth inhibition assay with peptides, HeLa S3. It counts as cell-based, human. Conditions: HeLa S3, 5 μM. The procedure:
as §2

Data set [7] concerns MCF-7 cells. It counts as cell-based, human. As for the experimental part: as §2
Data set [8] concerns HeLa S3 cells. Description: DNA and tubulin staining of polo-box-treated cells. The format is cell-based, human. The procedure: as §1

The text below walks through data of patent US20050107316A1, “Agent for inhibiting development or progress of proliferative diseases and especially cancer diseases and pharmaceutical composition containing said agent” (priority 2002, published 2005).

With “H-WVSKWVDYSDKYGLGYQLCDRQIKIWFQNRRMKWKK-OH [Peptide P1]”, the “Increase of mitotic cells compared to control cells” value in data set [1] (HeLa S3, 24 h, 5 μM) is recorded as 3-4 fold. In data set [1] (HeLa S3, 24 h, 5 μM), the “Percentage of mitotic cells” value is listed as 14.7%. Moreover, the “Increase of cells in G2/M compared to control cells” value in data set [1] (HeLa S3, day 6, 5 μM) is given as 25-35%. Moreover, the “Inhibitory effect on cell proliferation” value in data set [2] is given as “intermediate effect”; in data set [6], “little inhibition”; in data set [7] (MCF-7, 5 μM), “most prominent in MCF-7 cells”. Further, the Apoptotic cells entry in data set [3] (10 μM, 16 h annexin V and PI, DNA staining after 1 day) was “elevated percentage of apoptotic cells”. Further, the Apoptotic peak in data set [3] (time of treatment) stood at 24 h. Moreover, the “Start of the inhibitory effect” value in data set [3] (time of treatment) is 10 h. For the same substance, the “Inhibitory effect on phosphorylation” value is recorded as “at least two fold more inhibition” in data set [4] (6.25 to 25.0 μM, wild-type compared with mutated form P2) and “still exhibited some effect” in data set [4] (below 1.56 μM). Also, the “Phosphorylation of substrates by PLK1” value in data set [4] (37° C., 20 min) is “decreased the phosphorylation of substrates clearly”. Moreover, the Inhibition of proliferation result in data set [5] is “to a much lower extent than MCF-7 cells”. In data set [7], the “Concentration with general toxic effect” value was “above 20 μM”. The “Concentrations that started to inhibit proliferation” value in data set [7] (MCF-7) is “above 1 μM”. Further, in data set [7] (MCF-7), the “Range of dose-dependent inhibition of proliferation” value lay within 1 to 10 µM. Besides, the Growth behavior entry in data set [7] (MCF-7, 0.01 to 0.5 μM) is on record as “did not affect the growth behavior”. In data set [8], the Chromosomes entry was “misaligned, not properly segregated and partially condensed”.
